Experimental data from patent publication US6274557A, “Inhibition of nitric oxide synthase by amino acids and dipeptides” (Northwestern University, priority 1999, dated 2001).
Like-named read-outs stand apart in the source and are kept apart here.

Columns and labels:
[1] = molecular target: neuronal nitric oxide synthase (nNOS) from bovine brain (Bos taurus, UniProt A0A3Q1M6M2); test: Hemoglobin capture assay of nitric oxide formation, nNOS
Protocol: (§1) Nitric oxide formation was measured by using the hemoglobin capture assay. […] The production of nitric oxide by eNOS was measured as described. […] All assays were in a final volume of 600 μL and were initiated with enzyme.
(§2) The reversible inhibition of NOS by the dipeptide analogs was studied under initial rate conditions with the hemoglobin assay as described above. […] With various L-arginine and inhibitor concentrations.

[2] = molecular target: recombinant murine macrophage nitric oxide synthase (iNOS) (Mus musculus, UniProt P29477); test: Hemoglobin capture assay of nitric oxide formation, iNOS
Protocol: as §1, §2

[3] = molecular target: T1, recombinant bovine endothelial nitric oxide synthase (eNOS) (Bos taurus, UniProt P29473); test: Hemoglobin capture assay of nitric oxide formation, eNOS; type: biochemical
T1 construct: made in house; host or cells: E. coli
Protocol: as §1, §2

[4] = system: nitric oxide synthases (nNOS, iNOS, eNOS); details: literature, methyl: eNOS and nNOS over iNOS, ethyl: iNOS over nNOS and eNOS, cited from earlier work
[5] = N-substituted L-arginines, ratio of the inverse of the Ki values (IC50 for methyl, ethyl)

neuronal nitric oxide synthase (nNOS) from bovine brain, sequence (A0A3Q1M6M2 entry or part of it): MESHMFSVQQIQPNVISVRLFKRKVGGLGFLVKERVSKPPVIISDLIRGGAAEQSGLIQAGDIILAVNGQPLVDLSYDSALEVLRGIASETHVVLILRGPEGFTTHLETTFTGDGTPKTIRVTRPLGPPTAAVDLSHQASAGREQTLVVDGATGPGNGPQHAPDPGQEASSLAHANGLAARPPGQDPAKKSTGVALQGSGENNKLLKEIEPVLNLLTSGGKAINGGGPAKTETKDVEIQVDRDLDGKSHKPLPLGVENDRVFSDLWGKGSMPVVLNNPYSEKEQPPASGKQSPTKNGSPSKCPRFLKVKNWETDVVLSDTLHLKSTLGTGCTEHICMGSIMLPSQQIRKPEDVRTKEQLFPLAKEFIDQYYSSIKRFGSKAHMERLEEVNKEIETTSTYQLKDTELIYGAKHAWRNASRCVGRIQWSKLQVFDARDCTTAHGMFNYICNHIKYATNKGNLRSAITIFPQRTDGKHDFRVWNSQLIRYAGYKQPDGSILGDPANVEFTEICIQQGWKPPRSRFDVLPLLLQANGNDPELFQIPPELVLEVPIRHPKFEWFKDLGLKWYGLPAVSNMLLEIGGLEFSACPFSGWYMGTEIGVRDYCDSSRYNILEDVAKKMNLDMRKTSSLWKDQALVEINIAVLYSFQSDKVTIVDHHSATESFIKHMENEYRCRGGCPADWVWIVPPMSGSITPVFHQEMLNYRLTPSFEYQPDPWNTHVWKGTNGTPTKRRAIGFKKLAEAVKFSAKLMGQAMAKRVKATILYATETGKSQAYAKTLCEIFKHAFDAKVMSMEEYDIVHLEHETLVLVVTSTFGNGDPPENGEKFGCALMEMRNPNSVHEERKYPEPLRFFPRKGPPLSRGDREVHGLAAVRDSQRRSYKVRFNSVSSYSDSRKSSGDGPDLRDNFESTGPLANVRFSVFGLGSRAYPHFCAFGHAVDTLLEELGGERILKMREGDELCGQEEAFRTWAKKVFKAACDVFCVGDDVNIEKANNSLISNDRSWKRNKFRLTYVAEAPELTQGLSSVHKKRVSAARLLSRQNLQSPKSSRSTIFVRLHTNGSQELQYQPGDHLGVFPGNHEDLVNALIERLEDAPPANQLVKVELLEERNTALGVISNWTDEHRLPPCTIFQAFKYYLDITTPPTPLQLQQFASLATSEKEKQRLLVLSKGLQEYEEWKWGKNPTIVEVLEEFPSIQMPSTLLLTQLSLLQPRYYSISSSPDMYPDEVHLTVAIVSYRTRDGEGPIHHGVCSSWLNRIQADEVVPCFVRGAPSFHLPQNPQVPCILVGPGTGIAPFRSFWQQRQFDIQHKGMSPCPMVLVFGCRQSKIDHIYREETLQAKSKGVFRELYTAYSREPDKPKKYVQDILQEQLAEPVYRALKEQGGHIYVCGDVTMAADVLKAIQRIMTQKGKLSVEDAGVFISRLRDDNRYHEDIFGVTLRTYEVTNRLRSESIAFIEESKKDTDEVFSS

For `CCNC(=N)NCCC[C@H](N)C(=O)O` [ethyl, N^ω -ethyl-L-arginine, reference compound], the IC50 [1] was 16 µM, the “Selectivity nNOS/eNOS” value [1, 5] was 0.6 and the “Selectivity nNOS/iNOS” value [1, 5] was 0.4. The IC50 [2] was 6.1 µM, the IC50 [3] was 9.5 µM and the isoform selectivity factor ([4]; listed as N^ω --ethyl-L-arginine) was about 2. For the same molecule, the isoform selectivity factor ([4]; listed as N^ω -ethyl-L-arginine) was “about 2”.
